Results: patent publication US11712466B2, “Vaccine composition” (TOHOKU UNIVERSITY, priority 2017, dated 2023)
“Also recorded” adds a separate entry of the source. Ends that are not written are not given here.

Experiments:
KPC mouse = test: Life-extending effect in KPC mouse, spontaneous pancreatic cancer model; format: in vivo; conditions: KPC mice n=8, 100 μg with Alhydrogel every two weeks; all KLH controls (n=7) died before 300 days
Method: To a KPC mouse (aged 8 weeks at the initial immunization) that is a spontaneous pancreatic cancer model, 100 μg of the MTG peptide vaccine was administered together with Alhydrogel (registered trademark) every two weeks, and the survival rate thereof was confirmed (n=8). A KPC mouse to which 100 μg of KLH was administered according to the same schedule was used as a control (n=7) (FIG. 13).

Lewis lung cancer cells = test: In vitro wound migration method with serum of immunized mouse (LLC); format: cell-based; conditions: 1% serum of mouse with increased anti-VASH2 titer after vaccine; 24 and 48 hours
Method: By using the serum derived from a mouse in which an increase in the antibody titer against the recombinant human VASH2 protein by administration of the MTG peptide vaccine was confirmed, the effect on the migration ability of various types of cancer cells was examined by an in vitro wound migration method. Mouse-derived Lewis lung cancer cells and human-derived RH30 rhabdomyosarcoma cells were added to a 6-well plate at 1.0×10^6 cells each. After 24 hours, a formed cell monolayer was wounded and linearly exfoliated. After the exfoliation, the medium was replaced with fresh 0.5% FBS+RPMI medium supplemented with 1% mouse serum. At 24 hours and 48 hours after the medium replacement, the image of the cell monolayer was captured using an IX71 inverted microscope (manufactured by Olympus Corporation), and a cell migration distance of each time zone was analyzed using ImageJ software. The analysis was carried out according to the following formula. Cell migration distance (%)={(A−B)/A}×100
A: Width of initial wound, B: Width of wound after 24 hours or 48 hours

mSnail = test: Gene expression in excised tumor tissue by real-time PCR, mSnail; format: in vivo, mouse; conditions: tumor excised two weeks after implantation
Method: The mouse implanted with the tumor cells in Example 2 was sacrificed two weeks after implantation of the tumor cells, and a tumor was excised from the right axillary subcutaneous region. By using RNeasy Plus Kit (Qiagen, Inc.), extraction of the total RNA from the excised tumor and purification thereof were carried out. By using the obtained total RNA as a template, cDNA was synthesized by reverse transcription reaction. The cDNA was analyzed by performing real-time PCR using a mixed solution of the obtained cDNA and SYBR green (TAKARA BIO, Inc.).

[1] = tested on: recombinant human VASH2 protein; test: Antibody titer in blood of immunized mice by ELISA against recombinant VASH2 protein; format: in vivo, mouse; conditions: for production of an antibody specific to VASH2: Example 5: C57BL/6J mice
Description: C57BL/6J male mice aged 8 weeks were purchased from Charles River Laboratories Japan, Inc. After the delivery, the mice were reared in an environment where the room temperature and the light and dark cycles were maintained, and were provided with feed and water ad libitum. As a candidate sequence leading to activation of helper T cells by MHC class II, two peptide sequences: MTGSAADTHR (SEQ ID NO: 4; hereinafter, a peptide composed of the amino acid sequence is referred to as “MTG peptide”) and RRRQASPPRR (SEQ ID NO: 5; hereinafter, a peptide composed of the amino acid sequence is referred to as “RRR peptide”), each of which is not common to VASH1 in the VASH2 sequence were selected (FIG. 1). With respect to these peptides, peptide vaccines using KLH as a carrier were constructed. Note that for the conjugation of each peptide with KLH, a glutaraldehyde method was used. When the amount of the peptide introduced into KLH was measured for each of the obtained peptide vaccines, the amount of MTG was 66 to 70 nmol/mg of the conjugate, and the amount of RRR was 62 to 76 nmol/mg of the conjugate. Subsequently, 5 μg of KLH (control) and 20 μg of each of the KLH-antigen complexes were prepared with physiological saline so that the total amount was 50 μL, respectively, whereby KLH-mixed solutions were obtained. To each of the KLH-mixed solutions (50 μL), an equal amount of complete Freund's adjuvant was added. The obtained mixture was subcutaneously administered to the mice, whereby initial immunization was carried out. After 2 weeks from the administration, booster immunization was carried out by subcutaneously administering a mixture of each of the KLH-mixed solutions (50 μL) and an equal amount of incomplete Freund's adjuvant to the mice. Further, after 2 weeks from the booster immunization (after a total of 4 weeks), an increase in the antibody titer in the blood of each of the immunized mice was verified by ELISA.
The measurement of the antibody titer by ELISA was carried out as follows. After 2 weeks from the booster immunization (after a total of 4 weeks), the blood was collected from the facial vein of each of the immunized mice, and the serum separated from the blood was subjected to ELISA. By using 50 mM carbonate buffer, peptide-conjugated BSA was prepared at 10 μg/mL, and further a recombinant VASH2 protein was prepared at 1 μg/mL, each of which was added at 50 μL/well, and the resultant was left to stand overnight at 4° C. After the solution in each well was removed, 5% skim milk was added at 150 μL/well. After the resultant was left to stand at room temperature for 2 hours, the solution was removed, and subsequently, a serum sample diluted by 20 to 62500 times with 5% skim milk was added at 50 μL/well, and the resultant was left to stand overnight at 4° C. Subsequently, washing was carried out with PBS (200 μL/well×6 times), and thereafter, a secondary antibody (HRP-conjugated anti-Mouse IgG) diluted by 1000 times with 5% skim milk was added at 50 μL/well. After the resultant was left to stand at room temperature for 3 hours, washing was carried out with PBS (200 μL/well×3 times). Thereafter, tetramethylbenzidine (TMB) was added at 50 μL/well, and the resultant was left to stand at room temperature under light shielding. After 30 minutes, the reaction was stopped by adding 0.5 N H2SO4 at 50 μL/well, and an absorbance (450 nm) was measured using a microplate reader.

Substance: MTG peptide vaccine: MTG peptide MTGSAADTHR (SEQ ID NO: 4) conjugated with KLH as carrier by a glutaraldehyde method (also: conjugated with KLH by glutaraldehyde)
- mice survived over 300 days after birth (KPC mouse): at least 2 mice
- cell migration, mouse-derived Lewis lung cancer cells (Lewis lung cancer cells): migration inhibitory effect
- expression of mSnail (epithelial-mesenchymal transition marker) in tumor tissue (mSnail): dose-dependent expression inhibitory effect; also recorded: significantly inhibited depending on the dose
- antibody titer against the recombinant human VASH2 protein ([1]; Example 1: C57BL/6J mice, KLH-antigen complex s.c., Freund's adjuvant, serum 2 weeks after booster (total 4 weeks)): a significant increase in the antibody titer was confirmed; also recorded: a significant increase in the antibody titer was observed
- production of an antibody specific to VASH2 ([1]; 20 or 100 μg, Alhydrogel adjuvant, day 28): promoted the production of an antibody specific to VASH2
- production of an antibody specific to VASH2 ([1]; 20 or 100 μg, Freund's adjuvant, day 28): promoted the production of an antibody specific to VASH2
- production of an antibody specific to the VASH2 recombinant protein ([1]; Example 6: C57BL/6J mice, 20 or 100 μg, Alhydrogel, day 28): promotes the production of an antibody
- induced antibody binding to the VASH2 recombinant protein ([1]; Example 8: C57BL/6Jx129SVJ mice, 100 μg, Alhydrogel, day 28): induced an antibody that binds to both
